Data published in ChEMBL document CHEMBL5260810, “Inhibition of bromodomain-containing protein 9 for the prevention of epigenetically-defined drug resistance” (Bioorg Med Chem Lett, 2017).

Columns and labels:
[1] = Cytotoxicity against human RERF-LC-OK cells measured after 8 days; type: functional, cell-based; settings: 192 h
NCI-H2228 = assay: Cytotoxicity against human NCI-H2228 cells measured after 8 days; type: functional, cell-based; settings: NCI-H2228, 192 h
HDQ-P1 = assay: Cytotoxicity against human HDQ-P1 cells measured after 8 days; type: functional, cell-based; settings: HDQ-P1, 192 h
MDA-MB-468 = assay: Cytotoxicity against human MDA-MB-468 cells measured after 8 days; type: functional, cell-based; settings: MDA-MB-468, 192 h
UMC-11 = assay: Cytotoxicity against human UMC-11 cells measured after 8 days; type: functional, cell-based; settings: UMC-11, 192 h
[2] = target: T1, Myotonin-protein kinase (Homo sapiens) (UniProt Q09013); assay: Inhibition of DMPK (unknown origin) at 1 uM relative to control
T1 sequence (whole entry): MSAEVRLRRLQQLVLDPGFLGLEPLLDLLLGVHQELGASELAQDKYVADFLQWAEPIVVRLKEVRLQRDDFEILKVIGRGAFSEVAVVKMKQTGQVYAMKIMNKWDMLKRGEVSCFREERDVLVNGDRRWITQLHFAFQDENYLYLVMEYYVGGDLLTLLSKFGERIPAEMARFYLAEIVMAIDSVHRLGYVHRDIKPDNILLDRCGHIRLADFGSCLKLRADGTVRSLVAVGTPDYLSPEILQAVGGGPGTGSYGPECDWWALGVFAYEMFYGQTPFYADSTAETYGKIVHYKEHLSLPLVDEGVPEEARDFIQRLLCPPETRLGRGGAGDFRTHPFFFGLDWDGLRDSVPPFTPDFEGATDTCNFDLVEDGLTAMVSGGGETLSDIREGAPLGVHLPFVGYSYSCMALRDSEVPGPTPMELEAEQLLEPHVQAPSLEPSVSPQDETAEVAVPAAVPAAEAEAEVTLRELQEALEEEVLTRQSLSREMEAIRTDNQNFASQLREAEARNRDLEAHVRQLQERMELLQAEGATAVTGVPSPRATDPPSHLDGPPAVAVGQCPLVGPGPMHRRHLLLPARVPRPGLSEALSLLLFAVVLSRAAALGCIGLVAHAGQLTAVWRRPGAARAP

[3] = Cytotoxicity against human LS174T-HM7 cells measured after 8 days; type: functional, cell-based; settings: LS174T-HM7, 192 h
[4] = Cytotoxicity against human KPL-1 cells measured after 8 days; type: functional, cell-based; settings: KPL-1, 192 h
[5] = Cytotoxicity against human HT115 cells measured after 8 days; type: functional, cell-based; settings: HT115, 192 h
HCC1143 = assay: Cytotoxicity against human HCC1143 cells measured after 8 days; type: functional, cell-based; settings: HCC1143, 192 h
Peregrin = target: T2, Peregrin (Homo sapiens, UniProt P55201); assay: Binding affinity to human partial length BRPF1 (E627 to G740 residues) expressed in bacterial expression system by BROMOscan assay
T2 sequence (P55201 whole entry): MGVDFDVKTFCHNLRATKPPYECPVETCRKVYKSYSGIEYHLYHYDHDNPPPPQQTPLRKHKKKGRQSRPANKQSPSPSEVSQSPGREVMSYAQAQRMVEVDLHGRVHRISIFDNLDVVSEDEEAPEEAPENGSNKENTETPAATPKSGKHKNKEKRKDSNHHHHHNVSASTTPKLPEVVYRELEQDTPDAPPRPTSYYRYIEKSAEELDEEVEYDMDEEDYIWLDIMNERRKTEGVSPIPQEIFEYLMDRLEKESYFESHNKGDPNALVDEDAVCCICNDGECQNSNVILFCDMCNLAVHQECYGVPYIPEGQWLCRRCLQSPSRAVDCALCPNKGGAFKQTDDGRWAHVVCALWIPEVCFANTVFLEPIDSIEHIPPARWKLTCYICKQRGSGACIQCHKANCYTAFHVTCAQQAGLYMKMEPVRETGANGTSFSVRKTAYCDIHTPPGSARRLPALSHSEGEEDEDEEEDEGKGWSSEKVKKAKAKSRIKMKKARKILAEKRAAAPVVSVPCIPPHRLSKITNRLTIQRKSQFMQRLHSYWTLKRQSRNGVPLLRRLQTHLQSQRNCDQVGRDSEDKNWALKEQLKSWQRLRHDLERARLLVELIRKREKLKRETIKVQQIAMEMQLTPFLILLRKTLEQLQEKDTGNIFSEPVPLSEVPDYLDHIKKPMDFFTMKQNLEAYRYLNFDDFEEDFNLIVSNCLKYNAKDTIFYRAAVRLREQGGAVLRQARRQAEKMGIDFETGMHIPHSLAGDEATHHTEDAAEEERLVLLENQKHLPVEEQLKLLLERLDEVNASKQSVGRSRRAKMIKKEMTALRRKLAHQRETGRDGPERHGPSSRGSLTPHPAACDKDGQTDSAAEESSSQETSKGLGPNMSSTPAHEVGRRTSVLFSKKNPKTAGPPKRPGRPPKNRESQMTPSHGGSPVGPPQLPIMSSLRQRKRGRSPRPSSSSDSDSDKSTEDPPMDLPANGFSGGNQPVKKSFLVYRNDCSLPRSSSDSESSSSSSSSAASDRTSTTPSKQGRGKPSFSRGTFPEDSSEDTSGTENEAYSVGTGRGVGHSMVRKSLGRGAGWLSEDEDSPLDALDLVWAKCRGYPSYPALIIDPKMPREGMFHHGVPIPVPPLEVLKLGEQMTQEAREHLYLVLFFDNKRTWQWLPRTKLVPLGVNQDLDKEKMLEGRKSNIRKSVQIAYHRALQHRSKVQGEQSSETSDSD

NCI-H1944 = assay: Cytotoxicity against human NCI-H1944 cells measured after 8 days; type: functional, cell-based; settings: NCI-H1944, 192 h
NCI-H146 = assay: Cytotoxicity against human NCI-H146 cells measured after 8 days; type: functional, cell-based; settings: NCI-H146, 192 h
[6] = Cytotoxicity against human EB1 cells measured after 8 days; type: functional, cell-based; settings: EB1, 192 h
IGR-37 cell line = assay: Cytotoxicity against human IGR-37 cell line measured after 8 days; type: functional, cell-based; settings: IGR-37, 192 h
[7] = Cytotoxicity against human NCI-H2722 cells measured after 8 days; type: functional, cell-based; settings: NCI-H2722, 192 h
[8] = target: T3, 5-hydroxytryptamine receptor 1A (Homo sapiens) (UniProt P08908); assay: Displacement of [3H]8-OH-DPAT from recombinant human 5-HT1A receptor at 10 uM after 60 mins by scintillation counting analysis relative to control
T3 sequence (whole entry): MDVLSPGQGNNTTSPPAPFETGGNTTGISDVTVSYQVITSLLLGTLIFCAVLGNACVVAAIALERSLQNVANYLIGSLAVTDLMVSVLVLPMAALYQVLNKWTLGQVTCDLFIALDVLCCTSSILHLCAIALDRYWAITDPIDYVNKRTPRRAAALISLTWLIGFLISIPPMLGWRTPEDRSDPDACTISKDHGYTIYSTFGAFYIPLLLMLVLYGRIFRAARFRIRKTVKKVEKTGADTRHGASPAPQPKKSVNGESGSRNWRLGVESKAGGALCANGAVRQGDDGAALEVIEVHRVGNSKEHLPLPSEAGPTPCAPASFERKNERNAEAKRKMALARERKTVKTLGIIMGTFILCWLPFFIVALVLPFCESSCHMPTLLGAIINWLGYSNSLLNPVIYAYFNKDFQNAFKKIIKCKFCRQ

SMILES | IC50 [1] [µM] | IC50 (NCI-H2228) [µM] | IC50 (HDQ-P1) [µM] | IC50 (MDA-MB-468) [µM] | IC50 (UMC-11) [µM] | inhibition [2] [%] | IC50 [3] [µM] | IC50 [4] [µM] | IC50 [5] [µM] | IC50 (HCC1143) [µM] | Kd (Peregrin) [µM] | IC50 (NCI-H1944) [µM] | IC50 (NCI-H146) [µM] | IC50 [6] [µM] | IC50 (IGR-37 cell line) [µM] | IC50 [7] [µM] | Activity [8] [%]
C/C=C/Cn1cc(-c2ccc(C(C)(C)O)cc2OC)c2cc[nH]c2c1=O | 20 | 20 | 20 | 20 | 20 | 2.5 | 20 | 17.5 | 20 | 20 | > 10 | 20 | 20 | 20 | 20 | 20 | 11
C/C=C/Cn1cc(-c2cc(OC)c(C(C)(C)O)cc2OC)c2cc(C)[nH]c2c1=O | – | – | – | – | – | – | – | – | – | – | > 10 | – | – | – | – | – | –
C/C=C/Cn1cc(-c2ccc(C(=O)N3CCOCC3)cc2)c2cc[nH]c2c1=O | 20 | 20 | 20 | 20 | 20 | -2 | 20 | 20 | 20 | 20 | > 10 | 20 | 20 | 20 | 20 | 20 | 7
C/C=C/Cn1cc(-c2cc(OC)c(C(=O)N3CCOCC3)cc2OC)c2cc(C)[nH]c2c1=O | 2 | 2 | 2 | 2 | 2 | -4 | 2 | 2 | 2 | 2 | > 10 | 2 | 2 | 2 | 2 | 2 | 6
